The structures appear in SMILES notation. In brackets after ≈: the same amount, converted by molar mass.

Consider 2 compounds from patent US9266842B2, “Anti-malarial agents” (UNIVERSITY OF CAPE TOWN, priority 2012, dated 2016).

The test system of assay [1] is P. falciparum NF54. The assay can be described thus: Anti-malarial in vitro efficacy, assay 1, P. falciparum NF54. It counts as cell-based. Particulars: Plasmodium falciparum, strain NF54. The procedure: (§1) The ability of aminopyrazine derivatives according to the invention to kill P. falciparum parasites and/or to inhibit its proliferation is tested as follows:
(§2) The protocol used was as described in the supplemental material to Fiddock et al., 2004, Nature Reviews Drug Discovery, (3), p 509.
(§3) EC50s (ng/ml) are reported in Table 3 below against different strains of P. falciparum K1, NF54 (assay 1).

For assay [2], the system named is P. falciparum K1. The experiment in a line: Anti-malarial in vitro efficacy, assay 1, P. falciparum K1. It is filed as cell-based. Conditions: Plasmodium falciparum, strain K1. As to the method:
as §1, §2, §3

For assay [3], the system named is parasitemia. The assay can be described thus: Anti-malarial in vivo efficacy, inhibition of parasitemia after 4 daily oral doses. Particulars: read-out: percentages of inhibition of parasitemia, 3 mg/kg po. From the text: The ability of aminopyrazine derivatives according to the invention to show antimalarial efficacy in vivo can be tested by using the protocols described in the supplemental material to Fidock et al., 2004, Nature Reviews Drug Discovery, (3), p 509.

For `CN1CCCN(C(=O)c2ccc(-c3cnc(N)c(-c4ccc(C(F)(F)F)cc4)n3)cc2)CC1` [Compound 25, (4-(5-amino-6-(4-(trifluoromethyl)phenyl)pyrazin-2-yl)phenyl)(4-methyl-1,4-diazepan-1-yl)methanone], the EC50 in assay [1] was 3.1 ng/mL (≈ 6.81 nM); in assay [2], 2.6 ng/mL (≈ 5.71 nM). Moreover, the inhibition in vivo at 3 mg/kg in assay [3] is 90%.
The like results for `Nc1ncc(-c2ccc(C(=O)N3CCCNCC3)cc2)nc1-c1ccc(C(F)(F)F)cc1` [Compound 27, (4-(5-amino-6-(4-(trifluoromethyl)phenyl)pyrazin-2-yl)phenyl)(1,4-diazepan-1-yl)methanone] were, in that order, 3.2 ng/mL (≈ 7.25 nM), 2.2 ng/mL (≈ 4.98 nM) and 88%.

Usually EC50 stands for the midpoint of the concentration-response curve.
